Reference: paper PMC9884808, “Pharmacokinetics, tissue distribution, and antitumor activity of a novel compound, NY-2, in non-small cell lung cancer” (Frontiers in Pharmacology, 2023)
Where two headings read alike, the source gives them in different places. Marks after values point to notes of the source that are not given here.

Tests used:
T47D = assay: MTT cell viability assay; format: cell-based, human; set-up: key to IC50 T47D: -: poor activity, cannot be unified; conditions: T47D breast cancer cells; for IC50: Homo sapiens
Protocol: (§1) The human colorectal cancer cell lines, HCT116 and LoVo, the breast cancer cell line, T47D, the hepatocellular carcinoma cell line, HepG2, the normal human liver cell line, HL7702, human umbilical vein endothelial cells (HUVECs), and the non-small cell lung cancer cell lines, A549, H1993, HCC827, H460, were purchased from the American Type Culture Collection (Manassas, VA, United States). Cell lines were cultured in the recommended RPMI-1640 medium (AE24464298, Hyclone, United States) and DMEM medium (AE29422278, Hyclone, United States) supplemented with 10% fetal bovine serum (FBS; JC63470, FB15015, Clark, United States) with 1% penicillin-streptomycin. Cells were maintained in an incubator at 37°C with 5% CO2 (HF90,Sanyo, Japan) and passaged every 48–72 h, after detaching with 0.25% trypsin (Sigma, United States). The compounds ZLDI-8 and NY-1 to -15 were synthesized in the laboratory of Dr. Huaiwei Ding in Shenyang Pharmaceutical University, and verified by high-performance liquid chromatography (purity >95%) for use in experiments (Supplementary Figure S1). Paclitaxel was purchased from MedChemExpress (HY-B0015, 99.97% purity, United States).
(§2) Cell viability was measured by the MTT assay. HCT116, HL7702, A549, H1993, HCC827, and H460 cells were dispensed into 96-well plates at a density of 1 × 10^5 cells/mL. After 24–48 h incubation, cells were treated with the compounds at different concentrations for the indicated periods. An assay kit (WLA073, Wanlei Co., Liaoning, China), was used according to the manufacturer’s instructions to measure LDH activity, The absorbance at 450 nm was measured with a microplate reader (Elx-800, Bio-Rad, China).
(§3) The preliminary antitumor activity of the series of ZLDI-8 derivatives, NY-1 to -15 was screened by the MTT cell viability assay. […] The antitumor activity of NY-2 on HCT116 cells was concentration- and time-dependent, and slightly better than that of the original compound, ZLDI-8.

LoVo = assay: MTT cell viability assay; format: cell-based, human; set-up: key to IC50 LoVo: -: poor activity, cannot be unified; conditions: LoVo colorectal cancer cells; for IC50: Homo sapiens
Protocol: as §1, §2, §3

HepG2 = assay: MTT cell viability assay; format: cell-based, human; set-up: key to IC50 HepG2: -: poor activity, cannot be unified; conditions: HepG2 hepatocellular carcinoma cells; for IC50: Homo sapiens
Protocol: as §1, §2, §3

HCT116 = assay: MTT cell viability assay; format: cell-based, human; set-up: key to IC50 HCT116: -: poor activity, cannot be unified; conditions: for IC50: Homo sapiens, HCT-116, HCT116 colorectal cancer cells; for IC50 HCT116: HCT116 colorectal cancer cells
Protocol: as §1, §2, §3

A549 cells = conditions: 28 days, NY-2 6 mg/kg, paclitaxel 1 mg/kg; for Lung metastasis of nude mice, number of mice (%): six mice per group, model 5 mice (83.3%)
Protocol: The experimental groups included the normal (no tumor cells, vehicle) group, the model (tumor cells, vehicle) group, NY-2-treated, and paclitaxel-treated groups, with six mice in each group. After 7 days for adaptation, 200 µL of A549 cells (2× 10^6 cells/mice) in serum-free medium were injected into the tail vein except for those in the normal group. Drug or vehicle administration via tail vein was started on the next day. The normal group and model group were given the same amount of sterile water containing 1% DMSO and 1% Tween as vehicle control. […] Injections were done every other day. The general conditions of the nude mice, with regard to activity and food ingestion, were observed every day, and their body weight was measured every other day.
KM mice were treated with ZLDI-8 or NY-2 by tail vein injection (6 mg/kg) for 7 days, then the mice were euthanized and liver and kidney tissues were removed and sectioned. For the experiment with BALB/c nude mice, the tail vein injections of NY-2 (6 mg/kg) were continued for 28 days, and the lungs, tumor, heart, liver, and kidney were removed. […] Sections for staining were dewaxed with xylene and then rehydrated, and hematoxylin-eosin staining was performed, after which the sections were again dehydrated in ethanol and cleared with xylene before being mounted on a slide, cover-slipped and examined microscopically. The remainder of the tumors and tissues was frozen in liquid nitrogen for other studies.

Row | Structure (SMILES) | IC50 (T47D) | IC50 HepG2 (HepG2) | IC50 (HCT116) | IC50 (LoVo) | IC50 (HepG2) | further results
1 | O=C1NC(=O)C(=Cc2cn(CCOc3ccc(Cl)cc3Cl)c3ccccc23)C(=O)N1 [NY-12] | 40.4 µM | - | 20 µM |  |  | IC50 LoVo (LoVo): -
2 | Cc1c(C=C2C(=O)NC(=O)NC2=O)c2ccccc2n1CCOc1cccc(C(F)(F)F)c1 [NY-8] | 10.3 µM | - |  | 38.1 µM |  | IC50 HCT116 (HCT116): -
3 | Cc1ccc(OCCn2c(C)c(C=C3C(=O)NC(=O)NC3=O)c3ccccc32)c(C)c1 [NY-1] |  |  |  |  | 26.2 µM | IC50 T47D (T47D): -; IC50 LoVo (LoVo): -; IC50 HCT116 (HCT116): -
4 | Cc1c(C=C2C(=O)NC(=S)NC2=O)c2ccccc2n1CCOc1ccc(Cl)cc1Cl [NY-10] | 23.3 µM |  | 26 µM | 86.4 µM | 66.7 µM | 
5 | Cc1c(C=C2C(=O)NC(=S)NC2=O)c2ccccc2n1CCOc1cccc(C(F)(F)F)c1 [NY-7] | 21.8 µM |  | 12.5 µM | 20.6 µM | 77.4 µM | 
6 | Cc1c(C=C2C(=O)NC(=O)NC2=O)c2ccccc2n1CCOc1cccc(F)c1 [NY-5] | 34 µM |  | 11.4 µM | 23.5 µM | 37.2 µM | 
7 | O=C1NC(=O)C(=Cc2cn(CCOc3cccc(F)c3)c3ccccc23)C(=O)N1 [NY-6] | 53.7 µM |  | 38.8 µM | 28.7 µM | 40.8 µM | 
8 | Cc1c(C=C2C(=O)NC(=O)NC2=O)c2ccccc2n1CCOc1cccc2ccccc12 [NY-14] | 74.3 µM | - |  |  |  | IC50 LoVo (LoVo): -; IC50 HCT116 (HCT116): -
9 | Cc1c(C=C2C(=O)NC(=S)NC2=O)c2ccccc2n1CCOc1cccc(F)c1 [NY-4] | 25.4 µM | - | 27.5 µM | 41.8 µM |  | 
10 | Cc1c(C=C2C(=O)NC(=S)NC2=O)c2ccccc2n1CCOc1cccc2ccccc12 [NY-13] | 5.15 µM |  | 12.8 µM | 43.2 µM | 33.1 µM | 
11 | O=C1NC(=O)C(=Cc2cn(CCOc3cccc4ccccc34)c3ccccc23)C(=O)N1 [NY-15] | 21.4 µM |  | 11.3 µM | 124 µM | 13.5 µM | 
12 | Cc1c(C=C2C(=O)NC(=O)NC2=O)c2ccccc2n1CCOc1ccc(Cl)cc1Cl [NY-11] | 16.6 µM |  |  | 23.2 µM | 90.1 µM | IC50 HCT116 (HCT116): -
13 | O=C1NC(=O)C(=Cc2cn(CCOc3cccc(C(F)(F)F)c3)c3ccccc23)C(=O)N1 [NY-9] |  |  | 35.3 µM |  | 85.2 µM | IC50 T47D (T47D): -; IC50 LoVo (LoVo): -
14 | CC(=O)O[C@H]1C(=O)[C@@]2(C)[C@H]([C@H](OC(=O)c3ccccc3)[C@]3(O)C[C@H](OC(=O)[C@H](O)[C@@H](NC(=O)c4ccccc4)c4ccccc4)C(C)=C1C3(C)C)[C@]1(OC(C)=O)CO[C@@H]1C[C@@H]2O [Paclitaxel, reference compound] |  |  |  |  |  | Body weight before dissection (A549 cells; nude mice with A549 lung metastasis, tail vein every other day, n=6, mean ± SEM): 22.72 ± 0.32 g; Kidney as a proportion of body weight (A549 cells; nude mice, n=6, mean ± SEM): 1.74 ± 0.03 10^-2; Liver as a proportion of body weight (A549 cells; nude mice, n=6, mean ± SEM): 5.45 ± 0.20# 10^-2; Lung as a proportion of body weight (A549 cells; nude mice, n=6, mean ± SEM): 0.64 ± 0.02 10^-2; Quality of the heart (A549 cells; nude mice, n=6, mean ± SEM): 0.14 ± 0.01 g; Quality of the kidney (A549 cells; nude mice, n=6, mean ± SEM): 0.41 ± 0.01 g; Quality of the liver (A549 cells; nude mice, n=6, mean ± SEM): 1.29 ± 0.06 g; Quality of the lung (A549 cells; nude mice, n=6, mean ± SEM): 0.15 ± 0.01 g; infiltration of A549 cells in the lung tissue (H&E) (A549 cells; nude mice): no infiltration of A549 cells in the lung tissue; Lung metastasis of nude mice, number of mice (%) (A549 cells): 0 (0); Lung metastasis of nude mice, number of mice (%) (A549 cells; listed as paclitaxel): No metastatic tumors were found
15 | Cc1c(C=C2C(=O)NC(=O)NC2=O)c2ccccc2n1CCOc1ccc(F)cc1 [NY-3] |  | - | 43.7 µM | 21.4 µM |  | IC50 T47D (T47D): -
